Results from article PMC3117970 (ACS chemical biology, 2011).
Like-named read-outs stand apart in the source and are kept apart here.

Assays:
human RAD51 = target: T1, human RAD51 (Homo sapiens, UniProt Q06609); test: D-loop assay for RAD51; format: biochemical; conditions: B02 derivatives 50 μM
T1 sequence (Q06609 2-339 limits assumed): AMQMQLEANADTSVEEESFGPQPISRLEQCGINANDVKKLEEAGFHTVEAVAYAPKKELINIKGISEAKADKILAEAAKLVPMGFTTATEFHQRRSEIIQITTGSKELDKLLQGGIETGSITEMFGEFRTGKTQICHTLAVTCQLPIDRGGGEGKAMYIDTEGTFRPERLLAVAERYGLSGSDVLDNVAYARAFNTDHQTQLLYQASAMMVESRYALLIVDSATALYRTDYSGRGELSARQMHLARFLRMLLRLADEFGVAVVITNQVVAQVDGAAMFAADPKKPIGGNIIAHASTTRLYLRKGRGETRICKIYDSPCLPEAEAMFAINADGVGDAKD

RecA = RecA (Escherichia coli, UniProt P0A7G6)
Chain of RecA (P0A7G6 2-353): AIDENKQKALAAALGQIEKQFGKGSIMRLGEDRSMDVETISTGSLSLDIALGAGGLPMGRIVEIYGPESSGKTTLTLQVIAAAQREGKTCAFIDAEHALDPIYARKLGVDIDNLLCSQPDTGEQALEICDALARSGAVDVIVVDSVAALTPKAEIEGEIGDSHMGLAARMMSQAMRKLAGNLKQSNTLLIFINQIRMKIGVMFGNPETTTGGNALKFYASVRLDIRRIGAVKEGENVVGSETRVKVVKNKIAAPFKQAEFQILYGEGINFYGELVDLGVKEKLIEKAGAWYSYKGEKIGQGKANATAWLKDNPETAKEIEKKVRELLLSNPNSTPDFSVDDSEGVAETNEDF

human RAD54 = target: T2, human RAD54 (Homo sapiens, UniProt Q92698); test: DNA branch migration assay for RAD54; format: biochemical; conditions: concentrations from 0 to 200 μM
T2 sequence (Q92698 1-747): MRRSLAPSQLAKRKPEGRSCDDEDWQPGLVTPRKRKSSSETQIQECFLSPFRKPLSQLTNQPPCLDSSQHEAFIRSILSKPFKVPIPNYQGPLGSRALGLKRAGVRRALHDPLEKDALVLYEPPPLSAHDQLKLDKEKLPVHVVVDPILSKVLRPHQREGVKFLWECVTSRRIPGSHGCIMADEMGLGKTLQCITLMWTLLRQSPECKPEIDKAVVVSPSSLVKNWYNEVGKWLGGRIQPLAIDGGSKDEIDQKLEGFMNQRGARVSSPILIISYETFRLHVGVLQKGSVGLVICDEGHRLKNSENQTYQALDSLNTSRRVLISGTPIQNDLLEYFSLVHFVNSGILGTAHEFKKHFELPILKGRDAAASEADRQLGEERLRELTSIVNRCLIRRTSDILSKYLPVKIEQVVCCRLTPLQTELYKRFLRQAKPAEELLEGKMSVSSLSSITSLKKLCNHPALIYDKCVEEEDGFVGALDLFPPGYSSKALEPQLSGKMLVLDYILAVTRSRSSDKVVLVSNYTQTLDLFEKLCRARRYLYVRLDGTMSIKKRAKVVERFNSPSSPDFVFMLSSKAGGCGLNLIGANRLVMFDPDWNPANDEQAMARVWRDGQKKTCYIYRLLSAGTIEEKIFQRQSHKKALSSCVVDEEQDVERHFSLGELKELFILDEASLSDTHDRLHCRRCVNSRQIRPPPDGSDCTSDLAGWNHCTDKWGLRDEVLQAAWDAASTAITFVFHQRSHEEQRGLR

Compound | inhibitory effect on DNA strand exchange activity of RAD51 (D-loop assay) (human RAD51) | inhibition of RecA DNA strand exchange (RecA; concentrations up to 100 μM) | other results
CCn1c(C=Cc2cccnc2)nc2ccccc2c1=O [B02-3a] | retain the inhibitory effect | do not inhibit | –
O=c1c2ccccc2nc(/C=C/c2cccnc2)n1Cc1ccccc1 [B02] | – | – | IC50 (RecA; read-out: IC50 for RecA, D-loop assay, RecA 1 μM): > 250 µM; inhibition of RecA DNA strand exchange (RecA; up to 250 μM of compound): did not observe any significant inhibition; inhibition of RAD54 branch migration activity (human RAD54): did not significantly inhibit
Cn1c(C=Cc2cccnc2)nc2ccccc2c1=O [B02-3e] | eliminates the inhibition | – | –
Cc1cccc(-n2c(/C=C/c3cccnc3)nc3ccccc3c2=O)c1 [B02-3b] | retain the inhibitory effect | do not inhibit | –
O=c1c2ccccc2nc(C=Cc2cccnc2)n1-c1ccccc1 [B02-3d] | eliminates the inhibition | – | –
Cc1ccc(-n2c(C=Cc3cccnc3)nc3ccccc3c2=O)cc1 [B02-3c] | eliminates the inhibition | – | –
